# Results published in patent US20070015774A1, “Quinazoline derivatives useful in cancer treatment” (Schering Corporation, priority 2005, published 2007).
# Like-named read-outs stand apart in the source and are kept apart here.
# Biological target: GST-p53 DNA binding domain (aa 92-aa 312) (Homo sapiens, UniProt P04637)
# Assay: Scintillation Proximity Assay (SPA), displacement of 3H STANDARD COMPOUND
# Conditions: for remaining activity at 2 µg/mL: 1 h, 2 ug/mL of drug, read-out: SPA ASSAY % Residual T @ 2 ug/mL of drug (Average of); for % Residual T @ 2 ug/mL according to scintillation proximity assay (SPA): residual total binding of 3H STANDARD COMPOUND
# Excerpt: Most of the oncogenic mutants of the tumor suppressor protein p53 lack sequence specific DNA binding activity at physiological temperature due to conformational changes in the DNA binding domain. Small molecules and peptide which bind to the p53 DNA binding domain stabilize the conformation and restore DNA binding activity to mutant p53 protein (Science 286, 2507-2510, 1999; PNAS, 99, 937-942, 2002). Using ^3H STANDARD COMPOUND (structure shown below; carbon atom with * is the atom labelled), [drawing 1366] a radio labeled small molecule which binds to p53, and the GST-p53 DNA binding domain (aa 92-aa 312), we have developed a quantitative screening assay. The assay is based on Scintillation Proximity Assay (SPA) technology, developed by Amersham Biosciences to measure molecular interactions. Briefly, the complex of GST-p53, ^3H STANDARD and Glutathione-SPA beads (Amersham Biosciences) are incubated with mixing for 1 hr at room temperature in the presence of the novel compounds to be screened. The signal is read on Microbeta. The compounds which have the ability to displace ^3H STANDARD COMPOUND are selected. Such molecules will stabilize the conformation and restore DNA binding activity to mutant p53 protein.
# The above assay was used to determine the ability of the compounds of this invention to directly bind to p53 core and restore DNA binding activity to mutant p53 and the results for selected compounds have been given above in various tables.
# A letter rating corresponding to % Residual total binding (T) @ 2 ug/mL of drug (i.e., compound of the present invention) from this assay have been assigned as follows: Compounds having % Residual T values of from 0% to less than 20% have been assigned the letter “A”. Compounds having % Residual T values of from 20% to less than 40% have been assigned the letter “B”. Compounds having % Residual T values of from 40% to less than 80% have been assigned the letter “C”. Compounds having % Residual T values of 80% or higher have been assigned the letter “D”. The exact % Residual T values @ 2 ug/mL for some illustrative compounds are shown below: […]
# [1] = letter rating, number in brackets = number of determinations averaged
# [2] = exact values, number in brackets = number of determinations averaged
# Chain of GST-p53 DNA binding domain (aa 92-aa 312) (P04637 92-312): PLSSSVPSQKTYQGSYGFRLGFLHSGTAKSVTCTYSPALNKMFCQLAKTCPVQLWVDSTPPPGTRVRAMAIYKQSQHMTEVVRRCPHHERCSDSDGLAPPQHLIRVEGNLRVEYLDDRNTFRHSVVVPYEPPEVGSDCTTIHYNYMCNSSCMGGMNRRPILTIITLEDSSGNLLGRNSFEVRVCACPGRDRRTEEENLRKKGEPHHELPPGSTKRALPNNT
Compound,remaining activity at 2 µg/mL [1],remaining activity at 2 µg/mL [2],further results
CN(C)CCCNc1nc(CN(C)Cc2ccc(Oc3ccccc3)cc2)nc2ccccc12 [38-64],40 to 80%,–,–
CN(C)CCCNc1nc(CN(C)Cc2ccc(C#Cc3ccccc3)cc2)nc2ccccc12 [38-65],≥ 80%,–,–
CN(C)CCCNc1nc(CN(C)Cc2cccn2S(=O)(=O)c2ccccc2)nc2ccccc12 [38-66],40 to 80%,–,–
CN(C)CCCNc1nc(CN(C)Cc2ccccc2Sc2ccc(Cl)cc2)nc2ccccc12 [38-67],40 to 80%,–,–
CN(C)CCCNc1nc(CN(C)C2CCC2)nc2ccccc12 [38-68],≥ 80%,–,–
CN(C)CCCNc1nc(CN(C)C2CCCCC2)nc2ccccc12 [38-72],40 to 80%,–,–
CN(C)CCCNc1nc(CN(C)C2CCSC2)nc2ccccc12 (stereo not shown) [38-74],40 to 80%,–,–
CN(C)CCCNc1nc(CN(C)C2C[C@@H]3CC[C@H]2C3)nc2ccccc12 (stereo partly shown) [38-75],≥ 80%,–,–
CC1CCC(N(C)Cc2nc(NCCCN(C)C)c3ccccc3n2)CC1 (stereo not shown) [38-77],40 to 80%,–,–
CC(C)C1CCC(N(C)Cc2nc(NCCCN(C)C)c3ccccc3n2)CC1 (stereo not shown) [38-81],0 to 20%,13.5%,–
CC(=O)N1CCC(N(C)Cc2nc(NCCCN(C)C)c3ccccc3n2)CC1 [38-82],40 to 80%,–,–
CN(C)CCCNc1nc(CN(C)C2CCC3CCCCC3C2)nc2ccccc12 (stereo not shown) [38-83],20 to 40%,28.7%,–
CN(C)CCCNc1nc(CN(C)C2CCC(C(C)(C)C)CC2)nc2ccccc12 (stereo not shown) [38-84],0 to 20%,7.8%,–
CN(C)CCCNc1nc(CN(C)C2CCC3(CC2)OCCO3)nc2ccccc12 [38-85],20 to 40%,23%,–
CN(C)CCCNc1nc(CN(C)C2CCCC(C(F)(F)F)C2)nc2ccccc12 (stereo not shown) [38-86],40 to 80%,–,–
CN(C)CCCNc1nc(CN(C)C2CCC(C(F)(F)F)CC2)nc2ccccc12 (stereo not shown) [38-87],40 to 80%,–,–
CCC(C)(C)C1CCC(N(C)Cc2nc(NCCCN(C)C)c3ccccc3n2)CC1 (stereo not shown) [38-88],0 to 20%,6.3%,–
CN(C)CCCNc1nc(CN(C)C2CCC(c3ccccc3)CC2)nc2ccccc12 (stereo not shown) [38-89],20 to 40%,21%,–
CN(C)CCCNc1nc(CN(C)C2CCC(C#N)(c3ccccc3)CC2)nc2ccccc12 (stereo not shown) [38-90],0 to 20%,5.5%,–
CN(C)CCCNc1nc(CN(C)C2CCN(C(=O)c3ccccc3)CC2)nc2ccccc12 [38-91],20 to 40%,20.7%,–
CN(C)CCCNc1nc(CN(C)CC2CCCCC2)nc2ccccc12 [38-93],40 to 80%,–,–
COc1ccc(Cl)cc1NC(=O)N(C)Cc1nc(NCCCN(C)C)c2ccccc2n1 [41-30],–,–,"remaining activity at 2 µg/mL (letter rating, Examples 41 table): 40 to 80%"
"COc1ccc(/C=C/c2nc(NCCCN(C)C)c3ccccc3n2)cc1 [CP-31398, reference compound]",–,61.3%,–
CN(Cc1ccccc1)Cc1nc2ccccc2c(=O)[nH]1 [PE-17],–,36.8%,–
CN(C)CCCNc1nc(CN(C)Cc2ccccc2)nc2ccccc12 [PE-19],–,22.2%,–
"CN(Cc1ccccc1)Cc1nc2ccccc2c(=O)[nH]1 [Preparative Example 17, 2-[(benzylmethylamino)methyl]-3H-quinazolin-4-one]",–,–,% Residual T @ 2 ug/mL according to scintillation proximity assay (SPA): B (% Residual T values of from 20% to less than 40%)
"CN(C)CCCNc1nc(CN(C)Cc2ccccc2)nc2ccccc12 [Preparative Example 19, N,N-dimethyl-N′-[2-{(N-methyl-N-benzylamino)methyl}quinazolin-4-yl]propane-1,3-diamine]",–,–,% Residual T @ 2 ug/mL according to scintillation proximity assay (SPA): B (% Residual T values of from 20% to less than 40%)
"CNCc1nc(NCCCN(C)C)c2ccccc2n1 [Preparative Example 20, N,N-DIMETHYL-N′-[2-(METHYLAMINOMETHYL)QUINAZOLIN-4-YL]PROPANE-1,3-DIAMINE]",–,–,% Residual T @ 2 ug/mL according to scintillation proximity assay (SPA): C (% Residual T values of from 40% to less than 80%)
"CN(C)CCC[C@H](N)C(N)=O [Preparative Example 42, 2(S)-(+)-AMINO-5-DIMETHYLAMINOPENTANAMIDE]",–,–,% Residual T @ 2 ug/mL according to scintillation proximity assay (SPA): D (% Residual T values of 80% or higher)
